Source: paper PMC5137160, “Optical imaging of MMP-12 active form in inflammation and aneurysm” (Scientific Reports, 2016)

Columns and labels:
MMP-12 active form [1] = molecular target: T1, MMP-12 active form (Mus musculus, UniProt P34960); experiment: Sponge model of sterile inflammation, fluorescence imaging of explanted sponges; format: in vivo, C57BL/6 mice; set-up: from tissue; host or cells: subcutaneously implanted polyvinyl alcohol sponges in C57BL/6 mice; details: 60 minutes after intravenous administration, 1 nmol
T1 sequence (P34960 110-473): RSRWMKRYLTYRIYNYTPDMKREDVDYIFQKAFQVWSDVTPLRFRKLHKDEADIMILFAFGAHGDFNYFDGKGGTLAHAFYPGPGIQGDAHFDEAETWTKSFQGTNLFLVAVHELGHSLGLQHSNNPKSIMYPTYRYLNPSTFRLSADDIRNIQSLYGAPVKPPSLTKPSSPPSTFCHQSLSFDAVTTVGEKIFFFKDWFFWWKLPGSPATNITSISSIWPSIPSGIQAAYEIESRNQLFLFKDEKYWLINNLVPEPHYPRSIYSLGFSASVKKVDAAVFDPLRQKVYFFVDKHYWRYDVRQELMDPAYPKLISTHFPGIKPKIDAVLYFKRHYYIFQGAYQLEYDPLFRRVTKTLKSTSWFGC
Procedure: Sponge model of sterile inflammation: Pieces of polyvinyl alcohol sponge (Ivalon Ear Wick, 0.9 e × 15 mm, New London, CT) were implanted in dorsal subcutaneous pockets of C57BL/6 mice (originally from Jackson Laboratory, Farmington, CT, n = 24) under isoflurane anesthesia, as described. Animals were re-anesthetized at day 1 or 4 after sponge implantation, and the sponges were removed for imaging or embedded in OCT, snap-frozen, and stored at −80 °C for further analysis.
Fluorescent probes (one nmol in 100 μL saline) were administered through a jugular vein catheter under inhaled isoflurane anesthesia. Blood samples were collected at various time points after probe administration to monitor blood clearance. […] Near-infrared fluorescence reflectance imaging was conducted using an IVIS Spectrum system (Caliper Life Science, Hopkinton, MA) with appropriate excitation (Ex) and emission (Em) filter sets (Ex/Em = 675/720 nm for probe 1 and Ex/Em = 745/800 nm for probes 3 and 4). Fluorescence from 10 μL of blood was converted to % injected dose per gram (% ID/g) using a standard curve derived from serial dilutions of each probe in 10 μL of mouse blood. Tissue fluorescence was quantified as mean efficiency per pixel and was presented as an arbitrary unit (AU) relative to the signal from each probe in 10 μL of mouse blood.

TACE = TACE (Homo sapiens, UniProt P78536); experiment: Metalloprotease inhibition assay (Ki); format: biochemical
Chain of TACE (P78536 215-824): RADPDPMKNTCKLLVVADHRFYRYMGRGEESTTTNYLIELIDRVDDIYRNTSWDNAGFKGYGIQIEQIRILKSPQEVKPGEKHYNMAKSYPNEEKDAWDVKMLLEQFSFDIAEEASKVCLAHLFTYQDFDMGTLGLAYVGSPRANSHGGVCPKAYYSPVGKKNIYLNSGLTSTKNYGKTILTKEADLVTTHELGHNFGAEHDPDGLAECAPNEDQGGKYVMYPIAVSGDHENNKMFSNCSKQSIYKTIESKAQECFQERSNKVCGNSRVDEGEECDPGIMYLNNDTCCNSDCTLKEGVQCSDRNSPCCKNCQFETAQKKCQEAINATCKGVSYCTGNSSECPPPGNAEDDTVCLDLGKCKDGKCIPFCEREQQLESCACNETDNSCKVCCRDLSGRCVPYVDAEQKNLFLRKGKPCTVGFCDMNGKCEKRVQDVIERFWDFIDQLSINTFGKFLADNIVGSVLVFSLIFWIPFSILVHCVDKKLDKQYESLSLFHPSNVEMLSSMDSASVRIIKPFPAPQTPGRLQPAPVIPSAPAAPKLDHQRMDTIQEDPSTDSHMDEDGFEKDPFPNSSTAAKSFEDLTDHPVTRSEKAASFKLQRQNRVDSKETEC

[2] = Blood clearance and biodistribution after intravenous administration in wild type mice; format: in vivo; details: 1 nmol intravenous, 30 and 60 minutes, compared to probe 1
Procedure: (§1) Fluorescent probes (one nmol in 100 μL saline) were administered through a jugular vein catheter under inhaled isoflurane anesthesia. Blood samples were collected at various time points after probe administration to monitor blood clearance. Animals were sacrificed at the indicated time points and various organs were harvested. Near-infrared fluorescence reflectance imaging was conducted using an IVIS Spectrum system (Caliper Life Science, Hopkinton, MA) with appropriate excitation (Ex) and emission (Em) filter sets (Ex/Em = 675/720 nm for probe 1 and Ex/Em = 745/800 nm for probes 3 and 4). Fluorescence from 10 μL of blood was converted to % injected dose per gram (% ID/g) using a standard curve derived from serial dilutions of each probe in 10 μL of mouse blood. Tissue fluorescence was quantified as mean efficiency per pixel and was presented as an arbitrary unit (AU) relative to the signal from each probe in 10 μL of mouse blood.

Stability in PBS = format: physicochemical
Procedure: (§2) Probes 1, 2, 3 and control probe 4 were synthesized from phosphinic building blocks whose synthesis was previously reported. Briefly, the elongation of the peptide’s sequence as well as the incorporation of the phosphinic building blocks were performed on solid support using a standard Fmoc strategy. After cleavage from the support, pseudo peptide intermediates were purified and subsequently engaged in a coupling reaction with the appropriate dye-NHS ester. The identity and purity of each optical probe were confirmed by analytical HPLC, mass spectrometry analysis and NMR (for detailed protocols and analytical data see supplemental information). The stability of each probe was confirmed in phosphate buffered saline (PBS). Moreover, the stability of probe 3 and its control, probe 4 were evaluated by HPLC in mouse blood over a period of 4 hours at 37 °C.

MMP-12 active form [3] = molecular target: T1, MMP-12 active form; experiment: MMP-12 imaging of carotid aneurysm; format: in vivo; set-up: from tissue; host or cells: CaCl2-induced aneurysmal left carotid artery of apoE-deficient mice (in vivo imaging and cryostat sections); details: high fat-fed apoE-/- mice, tissues harvested at 60 minutes after intravenous administration
Procedure: Carotid aneurysm model: Arterial aneurysm was induced over a 4-week period by exposing the left common carotid artery of apolipoprotein E–deficient (apoE^−/−, n = 7) mice (Jackson Laboratory) to calcium chloride, as described. The opposite carotid artery was exposed to normal saline and served as control for imaging studies. Tissues from a previous study (n = 3)[18] supplemented histologic evaluations.
as §1

[4] = Stability in mouse blood by HPLC; format: in vitro ADME; details: 4 hours at 37 °C
Procedure: as §2

human MMPs = experiment: Affinity and selectivity profile toward panel of human MMPs; format: biochemical
Procedure: Human MMP-8, -9, -12 and -13 were produced in the laboratory. Other MMPs were purchased from R&D Systems (Minneapolis, MN). MMP inhibition assays were carried out as previously described. Pro-MMPs were pre-activated by p-aminophenylmercuric acetate following the method described by R&D Systems. Titration experiments were carried out to determine active enzyme concentration for each MMP prior to the assay. For each probe, the percentage of inhibition was determined from five different concentrations in triplicates, chosen to reach a range of 20–80% inhibition. Ki values were determined using the method proposed by Horovitz and Leviski[45].

SMILES | fluorescence signal in explanted sponges (MMP-12 active form [1]) | Ki (TACE) | residual blood level [2] | stability in PBS (Stability in PBS) | fluorescence signal in aneurysmal left carotid artery (MMP-12 active form [3]) | stability in mouse blood [4] | affinity for human MMPs (human MMPs)
CC1(C)C(/C=C/C2=C(Oc3ccc(CCC(=O)NCCCOCCOCCOCCCNC(=O)[C@H](CCC(=O)[O-])NC(=O)[C@H](CCC(=O)O)NC(=O)[C@H](Cc4cc(-c5ccc(-c6cccc(Cl)c6)cc5)no4)CP(=O)(O)c4ccc(Br)cc4)cc3)C(=C/C=C3/N(CCC[N+](C)(C)C)c4ccc(S(=O)(=O)[O-])cc4C3(C)C)/CCC2)=[N+](CCC[N+](C)(C)C)c2ccc(S(=O)(=O)[O-])cc21 [probe 3] | intense signal | 4.61 ± 0.653 µM | significantly lower residual blood level | fully stable | significantly higher than the signal in the control, contralateral artery | fully stable | 
CC1(C)C(=CC=C2CCCC(C=CC3=[N+](CCC[N+](C)(C)C)c4ccc(S(=O)(=O)[O-])cc4C3(C)C)=C2Oc2ccc(CCC(=O)NCCCOCCOCCOCCCNC(=O)C(CCC(=O)[O-])NC(=O)C(CCC(=O)O)NC(=O)C(Cc3cc(-c4cccc(Oc5ccccc5)c4)no3)CP(=O)(O)c3ccc(Br)cc3)cc2)N(CCC[N+](C)(C)C)c2ccc(S(=O)(=O)[O-])cc21 (centres unmarked) [probe 4] | significantly lower | > 25 µM |  |  | significantly lower signal | stable | no affinity
